Each structure is given as a SMILES string.

One assay addresses T1, α2 receptors (Rattus norvegicus, UniProt P22909).
T1 construct: from tissue
T1 sequence (P22909 1-465): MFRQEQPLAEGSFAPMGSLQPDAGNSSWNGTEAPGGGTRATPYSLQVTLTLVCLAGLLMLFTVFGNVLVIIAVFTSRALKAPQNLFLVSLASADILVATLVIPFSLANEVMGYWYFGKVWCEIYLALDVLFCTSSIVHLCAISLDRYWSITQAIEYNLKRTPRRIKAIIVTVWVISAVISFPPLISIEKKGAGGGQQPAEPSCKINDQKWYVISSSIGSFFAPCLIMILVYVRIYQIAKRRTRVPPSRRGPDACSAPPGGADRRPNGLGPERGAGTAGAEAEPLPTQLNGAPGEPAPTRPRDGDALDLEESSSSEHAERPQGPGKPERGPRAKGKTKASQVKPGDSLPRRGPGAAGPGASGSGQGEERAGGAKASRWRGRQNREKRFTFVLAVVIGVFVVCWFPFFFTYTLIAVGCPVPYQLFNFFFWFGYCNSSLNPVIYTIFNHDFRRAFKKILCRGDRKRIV
Description: affinity to α2 receptors (test described by Djop, J. Neurochemistry, 41, p. 710 (1983)). The format is binding. As to conditions: α2 receptor; IC means inhibitory concentration. An excerpt: (§1) The activity of the compounds of the present invention has been confirmed by their affinity to α2 and D1 receptors, according to the tests described by Djop, J. Neurochemistry, 41, p. 710 (1983) and by Billard et al., Life Science, p. 35 (1985).

A further assay concerns the target T2, D1 receptors (Rattus norvegicus, UniProt P18901).
T2 construct: from tissue
Put plainly: affinity to D1 receptors (test described by Billard et al., Life Science, p. 35 (1985)). It is filed as binding. As to conditions: D1 receptor; IC means inhibitory concentration.
From the text: as §1

T2 sequence (P18901 whole entry): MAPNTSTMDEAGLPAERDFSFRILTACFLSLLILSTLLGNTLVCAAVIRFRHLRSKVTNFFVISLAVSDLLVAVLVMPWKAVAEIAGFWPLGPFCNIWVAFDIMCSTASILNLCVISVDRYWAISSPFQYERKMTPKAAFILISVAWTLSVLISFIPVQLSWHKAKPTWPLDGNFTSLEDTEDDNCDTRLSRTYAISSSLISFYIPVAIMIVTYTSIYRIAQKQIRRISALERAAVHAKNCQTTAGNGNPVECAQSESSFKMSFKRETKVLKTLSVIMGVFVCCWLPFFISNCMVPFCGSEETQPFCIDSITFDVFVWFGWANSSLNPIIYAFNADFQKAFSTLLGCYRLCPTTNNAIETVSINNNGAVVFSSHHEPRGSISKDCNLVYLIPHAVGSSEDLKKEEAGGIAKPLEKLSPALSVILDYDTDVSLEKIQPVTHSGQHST

Broadly, the IC50 is the concentration that gives 50% inhibition. With `CCNC(=O)N(CCCN(C)C)C(=O)CC1CC2c3cccc4[nH]cc(c34)CC2N1C` [Example 6, D-nor-6-methyl-7[N-(3-dimethylaminopropyl)-N-(ethylcarbamoyl)]-carbamoylmethyl-ergoline], the IC50 at α2 receptors was found to be 0.4 nM; on D1 receptors, 0.9 nM.

Turning to `CN1C(CCNC(=O)OCc2ccccc2)CC2c3cccc4[nH]cc(c34)CC21` [Example 8, D-nor-6-methyl-7-benzyloxycarbamoylethyl-ergoline], the IC50 at α2 receptors is 0.04 nM; on D1 receptors, 0.7 nM.

For `CN1C(CCN2CC(=O)NC2=O)CC2c3cccc4[nH]cc(c34)CC21` [Example 10, D-nor-6-methyl-7-(2,4-dioxo-1-imidazolidinyl-ethyl)-ergoline], the IC50 against α2 receptors amounted to 0.05 nM; on D1 receptors it was 0.4 nM.

The record behind these values is patent publication US4861793A, “D-nor-7-ergoline derivatives having anti-Parkinson and antipsychosis activity and pharmaceutical compositions containing them” (Farmitalia Carlo Erba, S.p.A, priority 1986, dated 1989).
